Results from PubChem BioAssay AID248 (DTP/NCI, 2004).
“And” between values parts separate entries of the source, which are not always exact repeats. Identical values can stand only once. Inconclusive results and toxic doses are left out. Rule as the data show it: active = T/C of 150% or more; inactive = T/C below 125%.

System: L1210 leukemia ip in BDF1 mice, survival T/C
Experiment: NCI In Vivo Anticancer Drug Screen. Data for tumor model L1210 Leukemia (intraperitoneal) in B6D2F1 (BDF1) mice
Settings: higher = longer survival
Outline: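 Tumor was transplanted into mice, which were then dosed with test compound or vehicle alone. Survival was recorded for each group, and the treated figure was expressed relative to the control figure.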

Measured: T/C

CC[C@](O)(C(=O)O)c1cc2n(c(=O)c1CO)Cc1cc3ccccc3nc1-2
inactive: endpoint: mean survival time, dose: 0.12 mg/kg/injection, schedule: Q#A X Z (ip), vehicle: saline 106 % of control | endpoint: mean survival time, dose: 0.18 mg/kg/injection, schedule: Q01DX009 (ip), vehicle: saline 105 % of control and 108 % of control | endpoint: mean survival time, dose: 0.25 mg/kg/injection, schedule: Q01DX006 (iv), vehicle: saline 107 % of control | endpoint: mean survival time, dose: 0.25 mg/kg/injection, schedule: Q01DX009 (ip), vehicle: saline 98 % of control | endpoint: mean survival time, dose: 0.25 mg/kg/injection, schedule: Q01DX010 (ip), vehicle: saline 117 % of control | endpoint: mean survival time, dose: 0.25 mg/kg/injection, schedule: Q01DX Z (im), vehicle: saline 107 % of control | endpoint: mean survival time, dose: 0.25 mg/kg/injection, schedule: Q01DX Z (sc), vehicle: saline 107 % of control | endpoint: mean survival time, dose: 0.25 mg/kg/injection, schedule: Q## X Z (ip), vehicle: saline 97 % of control | endpoint: mean survival time, dose: 0.25 mg/kg/injection, schedule: Q#A X Z (ip), vehicle: saline 114 % of control | endpoint: mean survival time, dose: 0.35 mg/kg/injection, schedule: Q01DX009 (ip), vehicle: saline 106 % of control and 113 % of control | endpoint: mean survival time, dose: 0.5 mg/kg/injection, schedule: Q01DX006 (iv), vehicle: saline 103 % of control | endpoint: mean survival time, dose: 0.5 mg/kg/injection, schedule: Q01DX009 (ip), vehicle: saline 104 % of control and 112 % of control | endpoint: mean survival time, dose: 0.5 mg/kg/injection, schedule: Q01DX009 (oral), vehicle: water 97 % of control | endpoint: mean survival time, dose: 0.5 mg/kg/injection, schedule: Q01DX Z (im), vehicle: saline 108 % of control | endpoint: mean survival time, dose: 0.5 mg/kg/injection, schedule: Q01DX Z (ip), vehicle: saline 122 % of control | endpoint: mean survival time, dose: 0.5 mg/kg/injection, schedule: Q01DX Z (oral), vehicle: saline 105 % of control | endpoint: mean survival time, dose: 0.5 mg/kg/injection, schedule: Q01DX Z (sc), vehicle: saline 107 % of control | endpoint: mean survival time, dose: 0.5 mg/kg/injection, schedule: Q## X Z (ip), vehicle: saline 103 % of control | endpoint: mean survival time, dose: 0.7 mg/kg/injection, schedule: Q01DX009 (ip), vehicle: saline 106 % of control and 108 % of control | endpoint: mean survival time, dose: 0.75 mg/kg/injection, schedule: Q03DX Z (ip), vehicle: saline 101 % of control | endpoint: mean survival time, dose: 1.0 mg/kg/injection, schedule: Q01DX006 (iv), vehicle: saline 111 % of control | endpoint: mean survival time, dose: 1.0 mg/kg/injection, schedule: Q01DX009 (ip), vehicle: saline 111 % of control and 112 % of control | endpoint: mean survival time, dose: 1.0 mg/kg/injection, schedule: Q01DX009 (oral), vehicle: water 113 % of control | endpoint: mean survival time, dose: 1.0 mg/kg/injection, schedule: Q01DX Z (im), vehicle: saline 113 % of control | endpoint: mean survival time, dose: 1.0 mg/kg/injection, schedule: Q01DX Z (oral), vehicle: saline 117 % of control | endpoint: mean survival time, dose: 1.0 mg/kg/injection, schedule: Q01DX Z (sc), vehicle: saline 113 % of control | endpoint: mean survival time, dose: 1.0 mg/kg/injection, schedule: Q## X Z (ip), vehicle: saline 114 % of control | endpoint: mean survival time, dose: 1.3 mg/kg/injection, schedule: Q## X008 (ip), vehicle: saline 102 % of control | endpoint: mean survival time, dose: 1.5 mg/kg/injection, schedule: Q03DX Z (ip), vehicle: saline 109 % of control | endpoint: mean survival time, dose: 2.0 mg/kg/injection, schedule: Q01DX001 (ip), vehicle: saline 106 % of control and 113 % of control (2×) | endpoint: mean survival time, dose: 2.0 mg/kg/injection, schedule: Q01DX006 (iv), vehicle: saline 114 % of control and 122 % of control | endpoint: mean survival time, dose: 2.0 mg/kg/injection, schedule: Q01DX010 (ip), vehicle: saline 110 % of control | endpoint: mean survival time, dose: 2.0 mg/kg/injection, schedule: Q01DX010 (oral), vehicle: saline 97 % of control | endpoint: mean survival time, dose: 2.0 mg/kg/injection, schedule: Q01DX Z (im), vehicle: saline 116 % of control | endpoint: mean survival time, dose: 2.0 mg/kg/injection, schedule: Q01DX Z (sc), vehicle: saline 114 % of control and 120 % of control | endpoint: mean survival time, dose: 2.0 mg/kg/injection, schedule: Q07DX Z (ip), vehicle: saline 109 % of control | endpoint: mean survival time, dose: 2.5 mg/kg/injection, schedule: Q01DX001 (oral), vehicle: water 111 % of control | endpoint: mean survival time, dose: 2.5 mg/kg/injection, schedule: Q04DX002 (ip), vehicle: saline 100 % of control and 108 % of control | endpoint: mean survival time, dose: 2.5 mg/kg/injection, schedule: Q04DX003 (ip), vehicle: saline 110 % of control | endpoint: mean survival time, dose: 2.5 mg/kg/injection, schedule: Q## X003 (ip), vehicle: saline 105 % of control and 109 % of control | endpoint: mean survival time, dose: 2.5 mg/kg/injection, schedule: Q## X003 (oral), vehicle: saline 107 % of control | endpoint: mean survival time, dose: 2.5 mg/kg/injection, schedule: Q## X003 (oral), vehicle: water 107 % of control | endpoint: mean survival time, dose: 2.5 mg/kg/injection, schedule: Q## X008 (ip), vehicle: saline 98 % of control | endpoint: mean survival time, dose: 2.6 mg/kg/injection, schedule: Q## X024 (ip), vehicle: saline 101 % of control | endpoint: mean survival time, dose: 2.6 mg/kg/injection, schedule: Q## X024 (oral), vehicle: water 100 % of control | endpoint: mean survival time, dose: 3.0 mg/kg/injection, schedule: Q01DX Z (sc), vehicle: saline 120 % of control | endpoint: mean survival time, dose: 3.0 mg/kg/injection, schedule: Q03DX Z (ip), vehicle: saline 118 % of control | endpoint: mean survival time, dose: 4.0 mg/kg/injection, schedule: Q01DX001 (ip), vehicle: saline 105 % of control and 110 % of control and 116 % of control | endpoint: mean survival time, dose: 4.0 mg/kg/injection, schedule: Q01DX009 (oral), vehicle: water 120 % of control | endpoint: mean survival time, dose: 4.0 mg/kg/injection, schedule: Q01DX Z (ip), vehicle: saline 97 % of control and 116 % of control | endpoint: mean survival time, dose: 4.0 mg/kg/injection, schedule: Q01DX Z (oral), vehicle: saline 101 % of control | endpoint: mean survival time, dose: 4.5 mg/kg/injection, schedule: Q01DX006 (iv), vehicle: saline 122 % of control | endpoint: mean survival time, dose: 4.5 mg/kg/injection, schedule: Q01DX Z (im), vehicle: saline 93 % of control | endpoint: mean survival time, dose: 5.0 mg/kg/injection, schedule: Q01DX001 (oral), vehicle: water 115 % of control | endpoint: mean survival time, dose: 5.0 mg/kg/injection, schedule: Q04DX002 (ip), vehicle: saline 110 % of control and 113 % of control | endpoint: mean survival time, dose: 5.0 mg/kg/injection, schedule: Q04DX003 (ip), vehicle: saline 116 % of control | endpoint: mean survival time, dose: 5.0 mg/kg/injection, schedule: Q04DX003 (ip), vehicle: water 118 % of control and 120 % of control | endpoint: mean survival time, dose: 5.0 mg/kg/injection, schedule: Q## X003 (ip), vehicle: saline 114 % of control | endpoint: mean survival time, dose: 5.0 mg/kg/injection, schedule: Q## X003 (oral), vehicle: water 121 % of control | endpoint: mean survival time, dose: 5.0 mg/kg/injection, schedule: Q## X008 (ip), vehicle: saline 105 % of control | endpoint: mean survival time, dose: 5.0 mg/kg/injection, schedule: Q## X024 (ip), vehicle: saline 120 % of control | endpoint: mean survival time, dose: 6.0 mg/kg/injection, schedule: Q01DX001 (ip), vehicle: saline 110 % of control | endpoint: mean survival time, dose: 6.5 mg/kg/injection, schedule: Q01DX006 (iv), vehicle: saline 112 % of control | endpoint: mean survival time, dose: 6.5 mg/kg/injection, schedule: Q01DX Z (sc), vehicle: saline 105 % of control | endpoint: mean survival time, dose: 8.0 mg/kg/injection, schedule: Q01DX001 (ip), vehicle: saline 105 % of control and 115 % of control | endpoint: mean survival time, dose: 8.0 mg/kg/injection, schedule: Q01DX009 (ip), vehicle: saline 120 % of control | endpoint: mean survival time, dose: 10.0 mg/kg/injection, schedule: Q01DX001 (ip), vehicle: saline 112 % of control | endpoint: mean survival time, dose: 10.0 mg/kg/injection, schedule: Q## X008 (ip), vehicle: saline 117 % of control | endpoint: mean survival time, dose: 10.0 mg/kg/injection, schedule: Q## X008 (oral), vehicle: water 121 % of control | endpoint: mean survival time, dose: 19.0 mg/kg/injection, schedule: Q03DX Z (ip), vehicle: saline 121 % of control | endpoint: mean survival time, dose: 50.0 mg/kg/injection, schedule: Q04DX003 (ip), vehicle: saline 105 % of control | endpoint: mean survival time, dose: 80.0 mg/kg/injection, schedule: Q04DX003 (ip), vehicle: saline 114 % of control | endpoint: mean survival time, dose: 160.0 mg/kg/injection, schedule: Q## X003 (ip), vehicle: saline 110 % of control | endpoint: mean survival time, dose: 125.0 micrograms/kg/injection, schedule: Q01DX Z (ip), vehicle: saline 111 % of control | endpoint: mean survival time, dose: 250.0 micrograms/kg/injection, schedule: Q01DX Z (ip), vehicle: saline 114 % of control | endpoint: median survival time, dose: 5.0 mg/kg/injection, schedule: Q04DX003 (ip), vehicle: saline 122 % of control | endpoint: median survival time, dose: 50.0 mg/kg/injection, schedule: Q01DX001 (ip), vehicle: saline 110 % of control and 119 % of control | endpoint: median survival time, dose: 83.3 mg/kg/injection, schedule: Q04DX003 (ip), vehicle: saline 110 % of control and 121 % of control | endpoint: median survival time, dose: 100.0 mg/kg/injection, schedule: Q04DX003 (ip), vehicle: saline 94 % of control and 116 % of control | endpoint: median survival time, dose: 148.0 mg/kg/injection, schedule: Q01DX001 (ip), vehicle: saline 115 % of control
